{"source": "patent US10449245B2", "about": "(priority 2014, dated 2019)", "origin": "cited, not measured here", "test_system": "HIV-specific T cells", "conditions": "IMiD present during stimulation with dendritic cells presenting Gag- or Nef-specific peptides; cited from earlier work", "data": [{"smiles": "Nc1cccc2c1CN(C1CCC(=O)NC1=O)C2=O", "note": "(centres unmarked) [Lenalidomide]", "values": [{"measurement": "function of T-cells after in vitro stimulation", "result": "a number of improvements in the function of the T-cells"}]}, {"smiles": "Nc1cccc2c1C(=O)N(C1CCC(=O)NC1=O)C2=O", "note": "(centres unmarked) [pomalidomide]", "values": [{"measurement": "function of T-cells after in vitro stimulation", "result": "a number of improvements in the function of the T-cells"}]}]}
